Measurements published in patent US4550186A, “Binuclear copper (II) carboxylates formed from amine-carboxyboranes” (Duke University, priority 1983, dated 1985).
Where two headings read alike, the source gives them in different places.

What was measured:
[1] = target: T1, messenger ribonucleic acid polymerase (Mus musculus, UniProt P08775+Q8CFI7); assay: In vivo messenger ribonucleic acid polymerase activity
T1 construct: enzymes isolated from nuclei; endogenous in cells; host or cells: Ehrlich ascites tumor cell nuclei, ammonium sulfate fraction
Procedure: (§1) CF1 male mice (~30 g) were implanted with 2×10^6 Ehrlich ascites tumor cells, intraperitoneally on Day 0. Compound I was suspended by homogenation in 0.05% polysorbate.80-water and administered intraperitoneally at 10 and 20 mg/kg for 9 days to determine its effectiveness for inhibition of tumor growth. Mice were sacrificed on Day 10, and the ascites fluid was collected from the peritoneal cavity. The volume and ascrit (packed cell volume) were determined for each animal and the percent inhibition of tumor growth was calculated. For the metabolic studies, mice were treated on Days 8 and 9 with 10 mg/kg of Compound I, intraperitoneally. The animal was sacrificed on Day 10 and the ascites fluid harvested. The in vitro metabolic studies were performed at 0.25, 0.50 and 1 mmol final concentration of Compound I.
In vitro and in vivo nuclear deoxyribonucleic acid polymerase activity was determined on isolated Ehrlich ascites cell nuclei. The incubation was that described by Sawada et al [Can. Res., 34, 3341 (1974)] except that [methyl-^3 H] deoxythymidine triphosphate (82.4 Ci/mmol) was used. The acid insoluble nucleic acid was collected on GF/F filters and counted. Nuclear ribonucleic acid polymerase activities were determined on enzymes isolated from nuclei. […] The acid insoluble ribonucleic acid was collected on nitrocellulose filters and counted.

[2] = target: T2, dihydrofolate reductase (Mus musculus, UniProt P00375); assay: In vitro dihydrofolate reductase activity; assay type: biochemical; settings: 0.25 to 1.0 mM
T2 sequence (P00375 1-187): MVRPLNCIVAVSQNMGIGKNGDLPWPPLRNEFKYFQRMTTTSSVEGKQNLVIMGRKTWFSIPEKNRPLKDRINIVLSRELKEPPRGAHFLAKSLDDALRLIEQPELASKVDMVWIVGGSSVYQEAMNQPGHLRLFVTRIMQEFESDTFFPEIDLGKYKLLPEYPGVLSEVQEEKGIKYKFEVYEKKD
Procedure: as §1, with “The animal was sacrificed on Day 10 and the ascites fluid harvested. The in vitro metabolic studies were performed at 0.25, 0.50 and 1 mmol final concentration of Compound I.” left out
Carbamyl phosphate synthetase activity was determined using the reaction medium of Kalman et al [Am. […] Citrulline formed from ornithine was measured at 490 nm by the method of Archibald [J. Biol. Chem., 156, 121 (1944)]. […] The ^14 CO2 generated in 15 min was trapped in 1M KOH and counted. Thymidylate synthetase activity was determined using a post-mitochondrial supernatant (9000 g×10 min) and 5 μCi of 5-^3 H-deoxyuridine monophosphate (14 Ci/mmol) according to the method of Kampf et al [ J. Med. Chem., 19, 903 (1976)]. ^14 C-Formate incorporation into purines was determined by the method of Spassova et al [Biochem. Pharmacol., 25, 923 (1976)] using 0.5 μCi of ^14 C-formic acid (52.0 mCi/mmol). […] The Rf value for xanthine monophosphate was scraped and counted. […]

Substance: {Cu[(CH3)3 N.BH2 CO2 ]2.(CH3)3 N.BH2 COOH} [Compound I]
- Messenger ribonucleic acid polymerase activity [1]: not affected
- Messenger ribonucleic acid polymerase activity ([1]; 10 mg/kg/day I.P. on Days 8 and 9): 96 ± 9 % Control
- dihydrofolate reductase inhibition [2]: not inhibited
